From patent US20240316022A1 (TYRA BIOSCIENCES, INC., priority 2021, published 2024)
Where two headings read alike, the source gives them in different places.

Legend:
Experiment in all cases: Kinase binding assay (kinase-tagged T7 phage, qPCR), Kd
FGFR1 = target: T1, FGFR1 (Homo sapiens, UniProt P11362); conditions: read-out: FGFR1 (Kd nM)
T1 construct: made in house; host or cells: E. coli derived from BL21, infected with T7 phage

FGFR2 = target: T2, FGFR2 (Homo sapiens, UniProt P21802); conditions: read-out: FGFR2 (Kd nM)
T2 construct: made in house; host or cells: E. coli derived from BL21, infected with T7 phage

FGFR3 = target: T3, FGFR3 (Homo sapiens, UniProt P22607); conditions: read-out: FGFR3 (Kd nM)
T3 construct: made in house; host or cells: E. coli derived from BL21, infected with T7 phage

FGFR4 = target: T4, FGFR4 (Homo sapiens, UniProt P22455); conditions: read-out: FGFR4 (Kd nM)
T4 construct: made in house; host or cells: E. coli derived from BL21, infected with T7 phage
T4 sequence (P22455 22-802): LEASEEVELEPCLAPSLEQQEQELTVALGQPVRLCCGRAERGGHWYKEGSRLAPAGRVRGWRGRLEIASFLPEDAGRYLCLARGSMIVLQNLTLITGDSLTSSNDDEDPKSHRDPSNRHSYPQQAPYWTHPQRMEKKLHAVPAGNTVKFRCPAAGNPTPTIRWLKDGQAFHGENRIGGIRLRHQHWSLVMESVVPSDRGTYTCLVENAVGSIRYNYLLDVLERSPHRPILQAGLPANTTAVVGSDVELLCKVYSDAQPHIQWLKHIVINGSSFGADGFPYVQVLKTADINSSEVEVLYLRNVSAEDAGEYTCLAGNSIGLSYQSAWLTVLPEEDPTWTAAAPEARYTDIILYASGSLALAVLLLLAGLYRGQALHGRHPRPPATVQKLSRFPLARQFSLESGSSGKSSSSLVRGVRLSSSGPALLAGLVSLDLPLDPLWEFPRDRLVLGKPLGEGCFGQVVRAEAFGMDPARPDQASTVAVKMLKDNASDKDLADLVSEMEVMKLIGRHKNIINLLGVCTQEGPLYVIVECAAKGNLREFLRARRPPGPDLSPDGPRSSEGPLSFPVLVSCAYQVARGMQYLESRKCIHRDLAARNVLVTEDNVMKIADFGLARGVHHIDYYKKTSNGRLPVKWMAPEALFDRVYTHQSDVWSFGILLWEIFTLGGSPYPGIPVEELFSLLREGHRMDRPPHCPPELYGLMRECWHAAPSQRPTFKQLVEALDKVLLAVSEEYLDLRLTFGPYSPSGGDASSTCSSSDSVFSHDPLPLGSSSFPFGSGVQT

T1 sequence (P11362 22-822): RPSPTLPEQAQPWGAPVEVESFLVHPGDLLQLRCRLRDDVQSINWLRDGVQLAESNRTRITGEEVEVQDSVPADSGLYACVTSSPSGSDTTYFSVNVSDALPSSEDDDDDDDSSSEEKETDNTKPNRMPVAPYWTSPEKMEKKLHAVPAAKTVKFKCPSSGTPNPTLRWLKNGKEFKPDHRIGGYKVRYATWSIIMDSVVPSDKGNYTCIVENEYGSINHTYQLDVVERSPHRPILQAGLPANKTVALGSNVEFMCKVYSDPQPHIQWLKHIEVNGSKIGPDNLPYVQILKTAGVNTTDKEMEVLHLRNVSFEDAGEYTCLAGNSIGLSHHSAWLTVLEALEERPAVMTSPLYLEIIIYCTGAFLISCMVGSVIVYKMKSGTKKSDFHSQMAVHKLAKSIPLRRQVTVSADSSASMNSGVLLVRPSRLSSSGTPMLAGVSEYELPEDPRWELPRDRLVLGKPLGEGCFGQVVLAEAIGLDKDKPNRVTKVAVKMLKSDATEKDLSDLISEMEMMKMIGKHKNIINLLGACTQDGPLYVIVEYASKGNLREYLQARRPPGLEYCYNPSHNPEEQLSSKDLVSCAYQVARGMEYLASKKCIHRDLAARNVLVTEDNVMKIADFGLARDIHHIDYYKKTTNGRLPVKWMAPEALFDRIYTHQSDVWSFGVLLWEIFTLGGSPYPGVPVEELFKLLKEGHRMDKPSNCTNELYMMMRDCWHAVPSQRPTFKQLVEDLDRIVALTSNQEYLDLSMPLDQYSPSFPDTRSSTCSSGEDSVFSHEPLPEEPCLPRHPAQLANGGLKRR
T2 sequence (P21802 22-821): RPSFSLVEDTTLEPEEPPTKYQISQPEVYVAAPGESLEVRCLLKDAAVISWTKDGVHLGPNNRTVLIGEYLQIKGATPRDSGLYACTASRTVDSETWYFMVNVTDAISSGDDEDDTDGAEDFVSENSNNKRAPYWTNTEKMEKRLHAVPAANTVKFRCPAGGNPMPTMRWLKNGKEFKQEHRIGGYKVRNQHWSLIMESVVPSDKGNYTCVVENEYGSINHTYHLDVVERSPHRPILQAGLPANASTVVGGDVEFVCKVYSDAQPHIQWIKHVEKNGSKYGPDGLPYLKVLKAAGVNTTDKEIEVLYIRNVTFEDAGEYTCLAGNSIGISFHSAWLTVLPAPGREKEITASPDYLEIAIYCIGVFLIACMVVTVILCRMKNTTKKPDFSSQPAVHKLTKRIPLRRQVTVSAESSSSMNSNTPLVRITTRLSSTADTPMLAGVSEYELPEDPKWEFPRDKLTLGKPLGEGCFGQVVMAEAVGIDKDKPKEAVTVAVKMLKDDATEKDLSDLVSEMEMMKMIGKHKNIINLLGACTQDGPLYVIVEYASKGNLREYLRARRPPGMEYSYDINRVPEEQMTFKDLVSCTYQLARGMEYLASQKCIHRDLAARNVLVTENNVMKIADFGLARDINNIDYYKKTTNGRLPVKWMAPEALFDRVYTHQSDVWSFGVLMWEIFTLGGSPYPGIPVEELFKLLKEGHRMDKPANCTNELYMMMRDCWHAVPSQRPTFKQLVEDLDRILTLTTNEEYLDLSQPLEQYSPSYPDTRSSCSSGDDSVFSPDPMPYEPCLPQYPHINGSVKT
T3 sequence (P22607 23-806): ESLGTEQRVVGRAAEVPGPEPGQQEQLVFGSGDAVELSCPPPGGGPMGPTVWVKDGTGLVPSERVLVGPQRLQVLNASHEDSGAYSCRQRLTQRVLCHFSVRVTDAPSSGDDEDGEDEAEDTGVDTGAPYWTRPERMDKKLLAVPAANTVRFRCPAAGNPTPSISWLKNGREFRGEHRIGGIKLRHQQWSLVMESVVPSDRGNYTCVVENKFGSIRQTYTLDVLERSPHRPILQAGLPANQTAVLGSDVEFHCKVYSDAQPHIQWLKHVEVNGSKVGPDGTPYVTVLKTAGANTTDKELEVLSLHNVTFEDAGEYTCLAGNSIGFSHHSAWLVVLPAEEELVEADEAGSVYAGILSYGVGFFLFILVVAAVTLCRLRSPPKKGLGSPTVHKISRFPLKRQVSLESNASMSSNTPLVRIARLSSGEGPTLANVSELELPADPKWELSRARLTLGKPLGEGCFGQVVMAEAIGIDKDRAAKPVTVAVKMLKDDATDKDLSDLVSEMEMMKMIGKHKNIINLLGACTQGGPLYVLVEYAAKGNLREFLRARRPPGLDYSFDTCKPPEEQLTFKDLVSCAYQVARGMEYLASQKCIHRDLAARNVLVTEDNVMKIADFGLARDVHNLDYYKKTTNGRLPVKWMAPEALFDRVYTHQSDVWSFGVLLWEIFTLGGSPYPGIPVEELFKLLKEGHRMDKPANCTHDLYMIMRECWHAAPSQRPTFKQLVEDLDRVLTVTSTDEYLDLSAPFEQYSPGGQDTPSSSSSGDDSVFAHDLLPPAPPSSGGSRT

| Structure (SMILES) | Kd (FGFR1) [nM] | Kd (FGFR2) [nM] | Kd (FGFR3) [nM] | Kd (FGFR4) [nM] | Kd (FGFR1; given as a number, not a class symbol) [nM] |
| --- | --- | --- | --- | --- | --- |
| Cc1cnnc(C)c1[C@@H](C)Oc1ccc2[nH]nc(-c3cc(C#N)cc(OC(F)(F)F)c3)c2c1 [Example 61, 3-[5-[(1R)-1-(3,5-dimethylpyridazin-4-yl)ethoxy]-1H-indazol-3-yl]-5-(trifluoromethoxy)-benzonitrile] | > 1000 | > 1000 | > 1000 | 250 to 1000 |  |
| CC(C)N1CCC(Oc2ccc(-c3n[nH]c4ccc(O[C@H](C)c5c(Cl)cncc5Cl)cc34)cc2C#N)CC1 [Example 124, 5-[5-[(1R)-1-(3,5-dichloro-4-pyridyl)ethoxy]-1H-indazol-3-yl]-2-[(1-isopropyl-4-piperidyl)oxy]benzonitrile] | 0.1 to 100 | 0.1 to 100 | 0.1 to 100 | 0.1 to 100 |  |
| C[C@@H](Oc1ccc2[nH]nc(-c3cnc(O[C@H]4CCOC4)c(C#N)c3)c2c1)c1c(Cl)cncc1Cl [Example 133, 5-(5-((R)-1-(3,5-dichloropyridin-4-yl)ethoxy)-1H-indazol-3-yl)-2-(((S)-tetrahydrofuran-3-yl)oxy)nicotinonitrile] | 100 to 250 | 0.1 to 100 | 0.1 to 100 | 0.1 to 100 |  |
| COc1cc2[nH]nc(-c3cnc(N(C)C)c(C#N)c3)c2cc1O[C@H](C)c1c(Cl)cncc1Cl [Example 131, 5-[5-[(1R)-1-(3,5-dichloro-4-pyridyl)ethoxy]-6-methoxy-1H-indazol-3-yl]-2-(dimethylamino)pyridine-3-carbonitrile] | 0.1 to 100 | 0.1 to 100 | 0.1 to 100 | 0.1 to 100 |  |
| Cc1cnnc(C)c1[C@@H](C)Oc1ccc2[nH]nc(-c3cc(C#N)cc(OC4CCOC4)c3)c2c1 (stereo partly drawn) [Example 67, 3-[5-[(1R)-1-(3,5-dimethylpyridazin-4-yl)ethoxy]-1H-indazol-3-yl]-5-tetrahydrofuran-3-yloxy-benzonitrile] | 100 to 250 | 250 to 1000 | 100 to 250 | 0.1 to 100 |  |
| C[C@@H](Oc1ccc2[nH]nc(-c3ccc4c(c3)COC3(CCN(CC(F)F)CC3)O4)c2c1)c1c(Cl)cncc1Cl [Example 168, 6-[5-[(1R)-1-(3,5-dichloro-4-pyridyl)ethoxy]-1H-indazol-3-yl]-1′-(2,2-difluoroethyl)spiro[4H-1,3-benzodioxine-2,4′-piperidine]] | 0.1 to 100 | 0.1 to 100 | 0.1 to 100 | 0.1 to 100 |  |
| Cc1cc(C(=O)N2CCOc3ncc(-c4n[nH]c5ccc(O[C@H](C)c6c(Cl)cncc6Cl)cc45)cc32)ccn1 [Example 23, [7-[5-[(1R)-1-(3,5-dichloro-4-pyridyl)ethoxy]-1H-indazol-3-yl]-2,3-dihydro-pyrido[2,3-b][1,4]oxazin-1-yl]-(2-methyl-4-pyridyl)methanone] | > 1000 | > 1000 | 250 to 1000 | 0.1 to 100 |  |
| C[C@@H](Oc1ccc2[nH]nc(-c3ccc(NC(=O)N(C)C)nc3)c2c1)c1c(Cl)cncc1Cl [Example 14, 3-[5-[5-[(1R)-1-(3,5-dichloro-4-pyridyl)ethoxy]-1H-indazol-3-yl]-2-pyridyl]-1,1-dimethyl-urea] | 0.1 to 100 | 0.1 to 100 | 0.1 to 100 | 0.1 to 100 |  |
| COc1cc2[nH]nc(-c3cnc4c(c3)N(S(C)(=O)=O)CCO4)c2cc1O[C@H](C)c1c(Cl)cncc1Cl [Example 140, 7-[5-[(1R)-1-(3,5-dichloro-4-pyridyl)ethoxy]-6-methoxy-1H-indazol-3-yl]-1-methylsulfonyl-2,3-dihydropyrido[2,3-b][1,4]oxazine] | 250 to 1000 | 250 to 1000 | 100 to 250 | 0.1 to 100 |  |
| COc1ncc(-c2n[nH]c3ccc(O[C@H](C)c4c(Cl)cncc4Cl)cc23)cc1C#N [Example 74, 5-[5-[(1R)-1-(3,5-dichloro-4-pyridyl)ethoxy]-1H-indazol-3-yl]-2-methoxy-pyridine-3-carbonitrile] | 250 to 1000 | 250 to 1000 | 0.1 to 100 | 0.1 to 100 |  |
| CCN1CCC(Oc2c(C)cc(-c3n[nH]c4ccc(O[C@H](C)c5c(C)cnnc5C)cc34)cc2C#N)CC1 [Example 115, (R)-5-(5-(1-(3,5-dimethylpyridazin-4-yl)ethoxy)-1H-indazol-3-yl)-2-((1-ethylpiperidin-4-yl)oxy)-3-methylbenzonitrile] | 0.1 to 100 | 0.1 to 100 | 0.1 to 100 | 0.1 to 100 |  |
| COc1cc(-c2n[nH]c3ccc(O[C@H](C)c4c(Cl)cnc(F)c4Cl)cc23)cc2c1OC1(CCN(C(C)C)CC1)OC2 [Example 123, (R)-6-(5-(1-(3,5-dichloro-2-fluoropyridin-4-yl)ethoxy)-1H-indazol-3-yl)-1′-isopropyl-8-methoxy-4H-spiro[benzo[d][1,3]dioxine-2,4′-piperidine]] | 250 to 1000 | 250 to 1000 | 0.1 to 100 | 0.1 to 100 |  |
| Cc1cc(-c2n[nH]c3ccc(O[C@H](C)c4c(C)cnnc4C)cc23)cc(C#N)c1OC1CCN(C2COC2)CC1 [Example 113, (R)-5-(5-(1-(3,5-dimethylpyridazin-4-yl)ethoxy)-1H-indazol-3-yl)-3-methyl-2-((1-(oxetan-3-yl)piperidin-4-yl)oxy)benzonitrile] | 0.1 to 100 | 0.1 to 100 | 0.1 to 100 | 0.1 to 100 |  |
| COc1ncc(-c2n[nH]c3ccc(O[C@H](C)c4c(Cl)cncc4Cl)cc23)cc1NC(=O)CN(C)C [Example 15, N-[5-[5-[(1R)-1-(3,5-dichloro-4-pyridyl)ethoxy]-1H-indazol-3-yl]-2-methoxy-3-pyridyl]-2-(dimethylamino)acetamide] | > 1000 | > 1000 | 100 to 250 | 0.1 to 100 |  |
| CCN1CCC2(CC1)CC(O)c1cc(-c3n[nH]c4ccc(O[C@H](C)c5c(Cl)cncc5Cl)cc34)ccc1O2 (stereo partly drawn) [Example 103, 6-[5-[(1R)-1-(3,5-Dichloro-4-pyridyl)ethoxy]-1H-indazol-3-yl]-1′-ethyl-spiro[chromane-2,4′-piperidine]-4-ol] |  | 100 to 250 | 0.1 to 100 | 0.1 to 100 | 45 |
| COc1cc(N)cc(-c2n[nH]c3ccc(O[C@H](C)c4c(Cl)cncc4Cl)cc23)c1 [Example 44, 3-[5-[(1R)-1-(3,5-dichloro-4-pyridyl)ethoxy]-1H-indazol-3-yl]-5-methoxy-aniline] | > 1000 | > 1000 | 250 to 1000 | 0.1 to 100 |  |
| C[C@@H](Oc1ccc2[nH]nc(-c3ccc(NC(=O)N4CCN(C)CC4)nc3)c2c1)c1c(Cl)cncc1Cl [Example 19, N-[5-[5-[(1R)-1-(3,5-dichloro-4-pyridyl)ethoxy]-1H-indazol-3-yl]-2-pyridyl]-4-methyl-piperazine-1-carboxamide] | 0.1 to 100 | 0.1 to 100 | 0.1 to 100 | 0.1 to 100 |  |
| COc1ncc(-c2n[nH]c3ccc(O[C@H](C)c4c(Cl)cncc4Cl)cc23)cc1NC(=O)N1CCN(C)CC1 [Example 7, (R)—N-(5-(5-(1-(3,5-Dichloropyridin-4-yl)ethoxy)-1H-indazol-3-yl)-2-methoxypyridin-3-yl)-4-methylpiperazine-1-carboxamide] | > 1000 | > 1000 | 100 to 250 | 0.1 to 100 |  |
| C[C@@H](Oc1ccc2[nH]nc(-c3ccc(C(N)=O)nc3)c2c1)c1c(Cl)cncc1Cl [Example 12, 5-[5-[(1R)-1-(3,5-dichloro-4-pyridyl)ethoxy]-1H-indazol-3-yl]pyridine-2-carboxamide] | 0.1 to 100 | 0.1 to 100 | 0.1 to 100 | 0.1 to 100 |  |
| COc1cc(OCC2CC2)cc(-c2n[nH]c3ccc(O[C@H](C)c4c(C)cnnc4C)cc23)c1 [Example 68, 3-[3-(cyclopropyl-methoxy)-5-methoxy-phenyl]-5-[(1R)-1-(3,5-dimethylpyridazin-4-yl)ethoxy]-1H-indazole] | > 1000 | > 1000 | > 1000 | 0.1 to 100 |  |
| COc1cc(-c2n[nH]c3ccc(O[C@H](C)c4c(C)cnnc4C)cc23)cc2c1OC1(CCN(C(C)C)CC1)OC2 [Example 125, (R)-6-(5-(1-(3,5-dimethylpyridazin-4-yl)ethoxy)-1H-indazol-3-yl)-1′-isopropyl-8-methoxy-4H-spiro[benzo[d][1,3]dioxine-2,4′-piperidine]] | 0.1 to 100 | 0.1 to 100 | 0.1 to 100 | 0.1 to 100 |  |
| C[C@@H](Oc1ccc2[nH]nc(-c3cnc(NC(=O)CN(C)C)c(F)c3)c2c1)c1c(Cl)cncc1Cl [Example 22, N-[5-[5-[(1R)-1-(3,5-dichloro-4-pyridyl)ethoxy]-1H-indazol-3-yl]-3-fluoro-2-pyridyl]-2-(dimethylamino)acetamide] | 0.1 to 100 | 0.1 to 100 | 0.1 to 100 | 0.1 to 100 |  |
| C[C@@H](Oc1ccc2[nH]nc(-c3cnc4c(c3)OCC(=O)N4)c2c1)c1c(Cl)cncc1Cl [Example 38, 7-[5-[(1R)-1-(3,5-dichloro-4-pyridyl)ethoxy]-1H-indazol-3-yl]-4H-pyrido[3,2-b][1,4]oxazin-3-one] | 0.1 to 100 | 0.1 to 100 | 0.1 to 100 | 0.1 to 100 |  |
| C[C@@H](Oc1ccc2[nH]nc(-c3cnc(N)c(OCC(F)(F)F)c3)c2c1)c1c(Cl)cncc1Cl [Example 37, 5-[5-[(1R)-1-(3,5-Dichloro-4-pyridyl)ethoxy]-1H-indazol-3-yl]-3-(2,2,2-trifluoroethoxy)pyridin-2-amine] | > 1000 | > 1000 | > 1000 | 0.1 to 100 |  |
| C[C@@H](Oc1ccc2[nH]nc(-c3ccc(NC(=O)N4CCC(O)C4)nc3)c2c1)c1c(Cl)cncc1Cl (stereo partly drawn) [Example 24, N-[5-[5-[(1R)-1-(3,5-dichloro-4-pyridyl)ethoxy]-1H-indazol-3-yl]-2-pyridyl]-3-hydroxy-pyrrolidine-1-carboxamide] | 0.1 to 100 | 0.1 to 100 | 0.1 to 100 | 0.1 to 100 |  |
